# From patent publication EP0103895A2, “Novel hydroxylamine derivatives, production and use thereof” (MEIJI SEIKA KABUSHIKI KAISHA, priority 1982, dated 1984)
# Where “and” joins values, the source holds several entries; their conditions need not be identical. Equal entries are not always repeated. Where two headings read alike, the source gives them in different places.
# Assays:
# [1] = system: fowl roundworm (As. galli); assay: Anthelmintic test in chickens artificially infected with fowl roundworm, compound added to feed, E.P.G. and worm count up to 21st day (Test Examples A2, B2, C2, D2); type: in vivo, Ascaridia galli; details: for inhibition in vivo at 10 ppm: 10 ppm added to feed
# [2] = system: canine strongyloides (Strongyloides stercoralis); assay: Anthelmintic test against canine strongyloides in naturally infected dogs, E.P.G. on 7th day (Test Examples A4, B4, C4, D4); type: in vivo; details: dogs, 10 mg/Kg orally once, one value per dog
# Experimental: Three dogs infected with canine strongyloides (naturally infected dogs) were employed by grouping them into a group of two and a group of one.
# As control, only a gelatin capsule was administered orally to the one dog.
# (§1) Before administration and on the 7th day after administration, fecal matter testing was conducted to calculate the E.P.G., and the anthelmintic effect was judged by the changing of the E.P.G. to negative.
# (§2) As control, only gelatin capsules were administered orally to the one dog.
# as §2
# [3] = system: stomach worm (Haemonchus controtus); assay: Anthelmintic test against cow stomach worm in naturally infected cows, E.P.G. on 7th day (Test Examples A6, B6, C6, D6); type: in vivo; details: cows
# Experimental: Three cows infected with stomach worm (naturally infected cows) were employed by grouping them into a group of two and a group of one.
# (§3) As control, only gelatin capsules were administered orally to the one cow.
# as §1, §3, §3
# [4] = system: swine Oesophagostomum (Oesophagostomum dentatum); assay: Test of anthelmintic effect against swine Oesophagostomum in naturally infected pigs, E.P.G. on 7th day (Test Examples A8, B8, C8, D8); type: in vivo; details: for anthelmintic effect: one administration of 20 mg/Kg
# Experimental: Six pigs infected with swine Oesophagostomum (naturally infected pigs) were employed by grouping them into groups each of two pigs.
# (§4) As a control, only gelatin capsules were administered orally to the two pigs.
# as §1
# [5] = system: canine filaria; Dirofilaria immitis; assay: Test of anthelmintic effect against canine filaria in naturally infected dogs, subcutaneous injection, microfilaria in blood and adult filaria at autopsy (Test Examples A10, B10, C10, D10); type: in vivo; details: for inhibition in vivo at 20 mg/kg: Dirofilaria immitis, sc, 240 h
# [6] = system: Liver fluke; Fasciola hepatica (F. hepatica); assay: Test of anthelmintic effect against rat infected experimentally with liver fluke (Test Examples A11, B11, C11, D11); type: in vivo; design: key to Presence or absence of fluke egg in fecal matter On 21st day after the last administration: +: indicates detection of fluke egg; -: indicates no detection
# Text: Twenty-eight (28) rats were employed in fourteen groups each of two rats, each rat being infected with 5 metacercariae of Liver fluke; Fasciola he^patica (F.. hepatica) and confirmed to have worm eggs on the 75th day after infection according to fecal matter testing.
# Judgement of the effect was made by the presence or absence of the worm gees in the fecal matter on the 21st day after the last administration and by examination according to autopsis as to whether the worm bodies were dead or alive in the liver.
# The same as that in Test Example All, but eight (8) rats were employed by grouping them into groups each of two rats, each rat being infected with 5 metacercariae of liver fluke and confirmed to have fluke eggs on the 75th day after infection according to fecal matter testing.
# The compounds provided for the tests were Compound Nos. Bl, B8 and B19.
# The same as that in Test Example All, but six (6) rats were employed by grouping them into groups each of two rats, each rat being infected with 5 metacercariae of Fasciola hepatica and confirmed to have worm eggs on the 75th day after infection according to fecal matter testing.
# The compounds provided for the tests were Compound Nos. C2 and C6.
# The same as that in Test Example All, but the compounds provided for tests were Compound Nos. D14, D15 and D16.
# [7] = system: Diphyllobothrium erinacei; assay: Test of anthelmintic effect against Diphyllobothrium erinacei (tapeworm) in experimentally infected cats (Test Examples A5, B5, C5, D5)
# [8] = system: swine roundworm (Ascaris suum); assay: Test of anthelmintic effect in naturally infected pigs, E.P.G. on 7th day: swine roundworm (Test Examples A9, B9, C9, D9); type: in vivo; details: for anthelmintic effect: pigs infected with swine roundworm and swine whipworm (statement covers both)
# Experimental: (§5) Six pigs infected with swine roundworm and swine whipworm (naturally infected pigs) were employed in groups each of two pigs.
# as §4
# (§6) Before administration and on the 7th day after. administration, fecal matter testing was conducted to calculate the E.P.G., and the anthelmintic effect was judged by the changing of the E.P.G. to negative'.
# (§7) 50 mg of each compound was placed in a gelatin capsule per 1 Kg of body weight and administered orally to each of the two pigs. As control, only gelatin capsules were administered orally to two pigs.
# (§8) 30 mg of each compound was placed in a gelatin capsule per 1 Kg of body weight and administered orally to each of the two pigs. As control, only gelatin capsules were administered orally to two pigs.
# [9] = system: swine whipworm (Trichuris suis); assay: Test of anthelmintic effect in naturally infected pigs, E.P.G. on 7th day: swine whipworm (Test Examples A9, B9, C9, D9); type: in vivo
# Experimental: as §5, §4, §6, §7, §8
# [10] = system: fowl roundworm (Ascaridia galli); assay: Anthelmintic test in chickens artificially infected with fowl roundworm, single oral dose in gelatin capsule, worm bodies counted within 48 hours (Test Examples A1, B1, C1, D1); type: in vivo; details: Ascaridia galli, po, 48 h, read-out: Anthelmintic effect after 48 hours
# Procedure, shortened: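 Anthelmintic percentage derived from counts of worms passed within 48 h plus worms left in the intestine after killing at 48 h. Infection confirmed by fecal examination in three-bird groups; compound given orally once in gelatin capsules at 10/20 (A1, B1), 30/50 (C1) or 15/30 (D1) mg/kg.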
# [11] = Ascaridia galli, po, 504 h, chickens, worm count on 21st day, one value per chicken, read-out: Anthelmintic effect
# [12] = Ascaridia galli, po, 504 h, chickens, 50 ppm added to feed, worm count on 21st day, one value per chicken, read-out: Anthelmintic effect
# [13] = pigs, 20 mg/Kg orally once, one value per pig
# [14] = dogs, administration of 20 mg/Kg repeated three times, given as about 50% or more, read-out: anthelmintic effect against adult filaria
# [15] = dogs, 20 mg/Kg x 3 subcutaneously, autopsy on 10th day after the last administration, one value per dog, 20 mg/kg
# [16] = dogs, administration of 20 mg/Kg repeated three times
# [17] = rats, 50 mg/Kg x 5 orally, autopsy, liver, "Denatured" = fluke body is alive but a part of fluke body has changed, one value per rat
# [18] = rats, 50 mg/Kg x 5 orally, one value per rat
# [19] = chicken, 30 mg/Kg oral in gelatin capsule, chickens No.1-3
# [20] = chicken, 50 mg/Kg oral in gelatin capsule, chickens No.1-3
# [21] = Ascaridia galli, feed or water, 504 h, chicken, 25 ppm in feed, read-out: Anthelmintic effect
# [22] = Ascaridia galli, feed or water, 504 h, chicken, 50 ppm in feed, read-out: Anthelmintic effect
# [23] = pig, Ascaris suum, 30 mg/Kg oral in gelatin capsule, one administration
# [24] = pig, 30 mg/Kg oral in gelatin capsule, one administration
compound,measurement,setting,value
"C#CCN(OCC=C)C(C)=O [Compound A3, N-propargyl-N-acetyl-O-allylhydroxylamine]",inhibition in vivo at 10 ppm,[1]; [11],100%
same,inhibition in vivo at 50 ppm,[1]; [12],100%
same,Change of E.P.G. Before administration,"[2]; baseline, 10 mg/kg","1,900 E.P.G. and 2,700 E.P.G."
same,Change of E.P.G. 7th day,[2],0 E.P.G.
same,Change of E.P.G. Before administration,"[3]; 15 mg/Kg orally once, baseline, one value per cow, 15 mg/kg","1,700 E.P.G. and 1,500 E.P.G."
same,Change of E.P.G. 7th day,"[3]; 15 mg/Kg orally once, one value per cow",0 E.P.G.
same,anthelmintic effect,[3]; one administration of 15 mg/Kg,marked anthelmintic effect
same,Change of E.P.G. Before administration,"[4]; pigs, 20 mg/Kg orally once, baseline, one value per pig, 20 mg/kg","1,600 E.P.G. and 1,000 E.P.G."
same,Change of E.P.G. 7th day,[4]; [13],0 E.P.G.
same,anthelmintic effect,[4]; pigs,marked anthelmintic effect
same,inhibition in vivo at 20 mg/kg,[5]; [14],≥ 50%
same,Effect on adult filaria: Number of worms killed/Total parasites,[5]; [15],13/18 and 4/ 8
same,Effect on adult filaria: Percent of worms killed,[5]; [15],72% and 50%
same,Number of microfilaria/20 µl On 10th day after the last administration,"[5]; dogs, 20 mg/Kg x 3 subcutaneously, earlobe blood, one value per dog",0 /20 µl
same,anthelmintic effect against microfilaria (mf),[5]; [16],marked anthelmintic effect
same,Condition of fluke body,[6]; [17],dead
same,Presence or absence of fluke egg in fecal matter On 21st day after the last administration,[6]; [18],-
same,Number of worm bodies remaining in enteron,"[7]; cats infected with 5 plerocercoids, 50 mg/Kg x 5 times orally, autopsy ten days after administration, one value per cat",0
same,Worm egg detection on 10th day after administration,"[7]; cats, 50 mg/Kg x 5 times orally, one value per cat (Table A7)",-
same,anthelmintic effect,"[7]; cats, 5 continuous administrations of 50 mg/Kg",marked anthelmintic effects
"C#CCN(OCCCC)C(=O)c1ccccc1 [Compound A10, N-propargyl-N-benzoyl-O-butylhydroxylamine]",inhibition in vivo at 10 ppm,[1]; [11],80 to 90%
same,inhibition in vivo at 50 ppm,[1]; [12],100%
same,anthelmintic effect,[8]; one administration of 20 mg/Kg,marked anthelmintic effect
same,Change of E.P.G. 7th day,"[8]; pigs, 20 mg/Kg orally once, Ascaris suum, one value per pig",0 E.P.G.
same,Change of E.P.G. 7th day,[9]; [13],0 E.P.G.
same,Condition of fluke body,[6]; [17],dead
same,Presence or absence of fluke egg in fecal matter On 21st day after the last administration,[6]; [18],-
"C#CCNOCC.Cl [Compound D10, N-propargyl-O-ethylhydroxylamine hydrochloride]",inhibition in vivo at 15 mg/kg,"[10]; chicken, 15 mg/Kg oral in gelatin capsule, chickens No.1-3",100%
same,inhibition in vivo at 30 mg/kg,[10]; [19],100%
same,Change of E.P.G. 7th day,"[8]; pig, Ascaris suum, 20 mg/Kg, one administration",0
same,Change of E.P.G. 7th day,"[9]; pig, 20 mg/Kg, one administration",0
same,inhibition in vivo at 20 mg/kg,"[5]; dog, 20 mg/Kg x 3, subcutaneous injection, read-out: Effect on adult filaria: Percent of worms killed",54%
same,inhibition in vivo at 20 mg/kg,[5]; [14],≥ 50%
same,Number of microfilaria/20µl On 10th day after the administration,"[5]; dog, 20 mg/Kg x 3, subcutaneous injection",0 /20µl
same,Effect on adult filaria: Number of worms killed/ Total parasite,"[5]; dog, 20 mg/Kg x 3, subcutaneous injection, hydrochloride, 20 mg/kg",18/33 and 20/28
same,anthelmintic effect against microfilaria (mf),[5]; [16],marked anthelmintic effect
"C=CCN(OC)C(=O)c1ccccc1 [Compound B5, N-allyl-N-benzoyl-O-methylhydroxylamine]",inhibition in vivo at 30 mg/kg,"[10]; chickens, 30 mg/Kg orally in gelatin capsule, one value per chicken (No.1-3)",100%
same,inhibition in vivo at 50 mg/kg,"[10]; chickens, 50 mg/Kg orally in gelatin capsule, one value per chicken (No.1-3)",100%
same,inhibition in vivo at 20 ppm,"[1]; Ascaridia galli, po, 504 h, chickens, 20 ppm added to feed, worm count on 21st day, one value per chicken, read-out: Anthelmintic effect",80 to 90%
same,inhibition in vivo at 50 ppm,[1]; [12],100%
same,anthelmintic effect,[8]; one administration of 50 mg/Kg,marked anthelmintic effect
same,Change of E.P.G. 7th day,"[8]; pigs, 50 mg/Kg orally once, Ascaris suum, one value per pig",0 E.P.G.
same,Change of E.P.G. Before administration,"[9]; pigs, 50 mg/Kg orally once, baseline, one value per pig, 50 mg/kg","2,100 E.P.G. and 1,300 E.P.G."
same,Change of E.P.G. 7th day,"[9]; pigs, 50 mg/Kg orally once, one value per pig",0 E.P.G.
C=CCON(CC=C)C(=O)CCC [Compound C3],inhibition in vivo at 30 mg/kg,[10]; [19],80 to 90%
same,inhibition in vivo at 50 mg/kg,[10]; [20],100%
same,inhibition in vivo at 25 ppm,[1]; [21],80 to 90%
same,inhibition in vivo at 50 ppm,[1]; [22],100%
same,Change of E.P.G. 7th day,[8]; [23],0
same,Change of E.P.G. Before administration,"[8]; pig, Ascaris suum, before 30 mg/Kg oral (baseline)","1,300 and 2,100"
same,anthelmintic effect,[8]; one administration of 30 mg/Kg,marked anthelmintic effect
same,Change of E.P.G. 7th day,[9]; [24],0
C=CCON(CC=C)C(=O)c1ccccc1 [Compound C6],inhibition in vivo at 30 mg/kg,[10]; [19],100%
same,inhibition in vivo at 50 mg/kg,[10]; [20],100%
same,inhibition in vivo at 25 ppm,[1]; [21],100%
same,inhibition in vivo at 50 ppm,[1]; [22],100%
same,Change of E.P.G. 21st day,"[1]; chicken, 25 ppm in feed",0
same,Change of E.P.G. 21st day,"[1]; chicken, 50 ppm in feed",0
same,Change of E.P.G. 7th day,"[4]; pig, Oesophagostomum dentatum, 20 mg/Kg, one administration",0
same,anthelmintic effect,[4]; pigs,marked anthelmintic effect
same,Change of E.P.G. 7th day,[8]; [23],0
same,anthelmintic effect,[8]; one administration of 30 mg/Kg,marked anthelmintic effect
same,Change of E.P.G. 7th day,[9]; [24],0
same,Change of E.P.G. Before administration,"[9]; pig, before 30 mg/Kg oral (baseline)","4,300 and 5,800"
same,Condition of fluke body,"[6]; rat, 50 mg/Kg x 5",dead
same,Presence or absence of fluke egg in fecal matter On 21st day after the last administration,"[6]; rat, 50 mg/Kg x 5",-
same,anthelmintic effect,"[6]; rats, five administrations in a dose of 50 mg/Kg each",marked antihelmintic effect
